Measurements from patent publication US20260116921A1, “PEPTIDE INHIBITORS OF INTERLEUKIN-23 RECEPTOR AND THEIR USE TO TREAT INFLAMMATORY DISEASES” (priority 2018, published 2026).
Bridge positions count the residues as written; N and C are the ends. Square brackets hold non-standard residues; d marks the D form. Peptide text beside a SMILES is read from it. Trp(7-Me) = Cc1cccc2c(C[C@H](N)C(=O)O)c[nH]c12; 2Nal = N[C@@H](Cc1ccc2ccccc2c1)C(=O)O; AEF = NCCOc1ccc(C[C@H](N)C(=O)O)cc1; Cit = NC(=O)NCCC[C@H](N)C(=O)O; αMeL = CC(C)C[C@](C)(N)C(=O)O; Pen = CC(C)(S)[C@H](N)C(=O)O; αMeK = C[C@](N)(CCCCN)C(=O)O; βAla = NCCC(=O)O

Legend:
in vitro [1] = conditions: cynomolgus monkey, 20% fecal homogenate (supernatant), anaerobic, pH 6.8
in vitro [2] = conditions: both, SD, rat
in vitro [3] = conditions: human, 20% fecal homogenate (supernatant), anaerobic, pH 6.8
NK cells = test: NK cell based assay (IL-23/IL-18-induced IFNγ, Quantikine ELISA); conditions: human primary NK cells, IL-23 at EC50 to EC75 + IL-18 10 ng/mL, IFNγ after 20 to 24 hours
Protocol: killer (NK) cells, purified from human peripheral blood of healthy donors by negative selection (Miltenyi Biotech, Cat #130-092-657), were cultured in complete media (RPMI 1640 containing […], L-glutamine and penicillin-streptomycin) in the presence of IL-2 (RnD, Cat #202-IL-010/CF) at 25 ng/mL. After 7 days, cells were centrifuged, and resuspended in complete media at IE6 cells/mL. […] After 20 to 24 hours, IFNγ in the supernatant was quantified using Quantikine ELISA (RnD, Cat #DIF50).

IL-23R = molecular target: T1, IL-23R (Homo sapiens, UniProt Q5VWK5); test: DB cells IL23R pSTAT3 cell assay (pStat3 HTRF); assay type: cell-based; conditions: Table E3; DB cells, IL-23 0.5 nM, 30 minutes at 37° C.; read-out: pStat3 HTRF (IC50)
T1 sequence (Q5VWK5 24-629): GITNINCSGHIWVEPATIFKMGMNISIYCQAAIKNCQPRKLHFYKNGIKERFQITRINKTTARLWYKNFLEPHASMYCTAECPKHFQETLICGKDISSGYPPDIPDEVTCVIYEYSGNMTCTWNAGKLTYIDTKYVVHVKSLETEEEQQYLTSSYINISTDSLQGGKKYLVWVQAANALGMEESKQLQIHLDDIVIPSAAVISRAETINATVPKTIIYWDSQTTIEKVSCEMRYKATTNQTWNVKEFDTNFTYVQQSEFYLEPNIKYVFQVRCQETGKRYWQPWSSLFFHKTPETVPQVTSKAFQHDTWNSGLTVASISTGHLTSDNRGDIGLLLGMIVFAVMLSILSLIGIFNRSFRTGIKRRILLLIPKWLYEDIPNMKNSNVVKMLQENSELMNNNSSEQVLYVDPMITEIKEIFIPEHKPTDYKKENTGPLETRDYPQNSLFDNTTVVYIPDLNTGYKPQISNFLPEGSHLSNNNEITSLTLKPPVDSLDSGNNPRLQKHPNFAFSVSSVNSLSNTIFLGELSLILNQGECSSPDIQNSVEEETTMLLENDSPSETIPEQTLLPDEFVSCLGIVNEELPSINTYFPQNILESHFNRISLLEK
Outline: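 DB cells (5×10E5/well, RPMI-1640 + 10% FBS) stimulated with 0.5 nM final IL-23 plus serially diluted test peptides for 30 min at 37 °C, 5% CO2. Phospho-STAT3 (Tyr705) in lysates measured by HTRF using a two-plate protocol.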

| SMILES | half-life at 20 μM (in vitro [1]) [h] | half-life at 20 μM (in vitro [2]; plasma (EDTA, pooled)) [h] | half-life at 20 μM (in vitro [3]) [h] | IC50 (NK cells) [nM] | IC50 (IL-23R) [nM] | half-life at 20 μM (in vitro [2]; plasma (EDTA)) [h] |
| --- | --- | --- | --- | --- | --- | --- |
| CC(=O)NCCCC[C@@H]1NC(=O)[C@H](Cc2c[nH]c3c(C)cccc23)NC(=O)[C@H]([C@@H](C)O)NC(=O)[C@H](CC(N)=O)NC(=O)[C@@H](NC(C)=O)C(C)(C)SSC(C)(C)[C@@H](C(=O)N[C@@H](Cc2ccc(OCCN)cc2)C(=O)N[C@@H](Cc2ccc3ccccc3c2)C(=O)N[C@@](C)(CCCCN)C(=O)N[C@@H](CCCCNC(C)=O)C(=O)N[C@@H](CC(N)=O)C(=O)N[C@H](CCCCN)C(N)=O)NC1=O [SEQ ID No. 252, Ac-[Pen]-NT-[W(7-Me)]-[Lys(Ac)]-[Pen]-Phe[4-(2-aminoethoxy)]-[2-Nal]-[a-MeLys]-[Lys(Ac)]-N-[(D)Lys]-NH2] | > 24 | > 24 | > 24 | < 10 | < 1 |  |
| CC(=O)NCCCC[C@H](NC(=O)[C@](C)(CC(C)C)NC(=O)[C@H](Cc1ccc2ccccc2c1)NC(=O)[C@H](Cc1ccc(OCCN)cc1)NC(=O)[C@H]1NC(=O)[C@H](CCC(N)=O)NC(=O)[C@H](Cc2c[nH]c3c(C)cccc23)NC(=O)[C@H]([C@@H](C)O)NC(=O)[C@H](CC(N)=O)NC(=O)[C@@H](NC(C)=O)C(C)(C)SSC1(C)C)C(=O)NCC(=O)NCCC(N)=O [compound 205] | > 24 |  | > 24 | 11 to 100 | 1 to 10 | 1 |
| CC(=O)NCCCC[C@H](NC(=O)[C@](C)(CC(C)C)NC(=O)[C@H](Cc1ccc2ccccc2c1)NC(=O)[C@H](Cc1ccc(OCCN)cc1)NC(=O)[C@H]1NC(=O)[C@H](CCC(N)=O)NC(=O)[C@H](Cc2c[nH]c3c(C)cccc23)NC(=O)[C@H]([C@@H](C)O)NC(=O)[C@H](CC(N)=O)NC(=O)[C@@H](NC(C)=O)C(C)(C)SSC1(C)C)C(=O)N[C@@H](C)C(=O)NCCC(N)=O [compound 207] | > 24 |  | > 24 | < 10 | 1 to 10 | 2 |
| CC(=O)NCCCC[C@H](NC(=O)[C@](C)(CC(C)C)NC(=O)[C@H](Cc1ccc2ccccc2c1)NC(=O)[C@H](Cc1ccc(OCCN)cc1)NC(=O)[C@H]1NC(=O)[C@H](CCC(N)=O)NC(=O)[C@H](Cc2c[nH]c3c(C)cccc23)NC(=O)[C@H]([C@@H](C)O)NC(=O)[C@H](CC(N)=O)NC(=O)[C@@H](NC(C)=O)C(C)(C)SSC1(C)C)C(=O)N[C@@H](CC(C)C)C(=O)NCCC(N)=O [compound 208] | > 24 |  | > 24 | < 10 | 1 to 10 | 2 |
| CC[C@H](C)[C@H](NC(=O)[C@H](CCCCNC(C)=O)NC(=O)[C@](C)(CC(C)C)NC(=O)[C@H](Cc1ccc2ccccc2c1)NC(=O)[C@H](Cc1ccc(OCCN)cc1)NC(=O)[C@H]1NC(=O)[C@H](CCC(N)=O)NC(=O)[C@H](Cc2c[nH]c3c(C)cccc23)NC(=O)[C@H]([C@@H](C)O)NC(=O)[C@H](CC(N)=O)NC(=O)[C@@H](NC(C)=O)C(C)(C)SSC1(C)C)C(=O)NCCC(N)=O [compound 216] | > 24 |  | > 24 | 101 to 500 | 10 to 100 | 13 |
| CC(=O)NCCCC[C@H](NC(=O)[C@](C)(CC(C)C)NC(=O)[C@H](Cc1ccc2ccccc2c1)NC(=O)[C@H](Cc1ccc(OCCN)cc1)NC(=O)[C@H]1NC(=O)[C@H](CCC(N)=O)NC(=O)[C@H](Cc2c[nH]c3c(C)cccc23)NC(=O)[C@H]([C@@H](C)O)NC(=O)[C@H](CC(N)=O)NC(=O)[C@@H](NC(C)=O)C(C)(C)SSC1(C)C)C(=O)N[C@H](C(=O)NCCC(N)=O)[C@@H](C)O [compound 217] | > 24 |  | > 24 | 11 to 100 | 1 to 10 | 2 |
| CC(=O)NCCCC[C@H](NC(=O)[C@](C)(CC(C)C)NC(=O)[C@H](Cc1ccc2ccccc2c1)NC(=O)[C@H](Cc1ccc(OCCN)cc1)NC(=O)[C@H]1NC(=O)[C@H](CCC(N)=O)NC(=O)[C@H](Cc2c[nH]c3c(C)cccc23)NC(=O)[C@H]([C@@H](C)O)NC(=O)[C@H](CC(N)=O)NC(=O)[C@@H](NC(C)=O)C(C)(C)SSC1(C)C)C(=O)N(C)[C@@H](C)C(=O)NCCC(N)=O [compound 223] | > 24 |  | > 24 | < 10 | > 100 | 9 |
| CC(=O)NCCCC[C@H](NC(=O)[C@](C)(CC(C)C)NC(=O)[C@H](Cc1ccc2ccccc2c1)NC(=O)[C@H](Cc1ccc(OCCN)cc1)NC(=O)[C@H]1NC(=O)[C@H](CCC(N)=O)NC(=O)[C@H](Cc2c[nH]c3c(C)cccc23)NC(=O)[C@H]([C@@H](C)O)NC(=O)[C@H](CC(N)=O)NC(=O)[C@@H](NC(C)=O)C(C)(C)SSC1(C)C)C(=O)NCCC(=O)NCCC(N)=O [compound 226] | > 24 |  | > 24 | < 10 | 10 to 100 | 8 |
| CC(=O)NCCCC[C@H](NC(=O)[C@](C)(CCCCN)NC(=O)[C@H](Cc1ccc2ccccc2c1)NC(=O)[C@H](Cc1ccc(OCCN)cc1)NC(=O)[C@H]1NC(=O)[C@H](CCC(N)=O)NC(=O)[C@H](Cc2cn(C)c3ccccc23)NC(=O)[C@H]([C@@H](C)O)NC(=O)[C@H](CC(N)=O)NC(=O)[C@@H](NC(C)=O)C(C)(C)SSC1(C)C)C(=O)N[C@@H](CC(N)=O)C(=O)NCCC(N)=O [compound 232] | 10 |  | > 24 | < 10 | 1 to 10 | > 24 |
| CC(=O)NCCCC[C@H](NC(=O)[C@](C)(CC(C)C)NC(=O)[C@H](Cc1ccc2ccccc2c1)NC(=O)[C@H](Cc1ccc(OCCN)cc1)NC(=O)[C@H]1NC(=O)[C@](C)(CCCCN)NC(=O)[C@H](Cc2c[nH]c3c(C)cccc23)NC(=O)[C@H]([C@@H](C)O)NC(=O)[C@H](CC(N)=O)NC(=O)[C@@H](NC(C)=O)C(C)(C)SSC1(C)C)C(=O)N[C@@H](CC(N)=O)C(=O)NCCC(N)=O [compound 234] | > 24 |  | > 24 | < 10 | 1 to 10 | 7 |
| CC(=O)NCCCC[C@H](NC(=O)[C@](C)(CCCCN)NC(=O)[C@H](Cc1ccc2ccccc2c1)NC(=O)[C@H](Cc1ccc(OCCN)cc1)NC(=O)[C@H]1NC(=O)[C@](C)(CC(C)C)NC(=O)[C@H](Cc2c[nH]c3c(C)cccc23)NC(=O)[C@H]([C@@H](C)O)NC(=O)[C@H](CC(N)=O)NC(=O)[C@@H](NC(C)=O)C(C)(C)SSC1(C)C)C(=O)N[C@@H](CC(N)=O)C(=O)NCCC(N)=O [compound 235] (Ac-[Pen]NT[Trp(7-Me)][αMeL][Pen][AEF][2Nal][αMeK]K(Ac)N[βAla]-NH2; disulfide 1-6) | > 24 |  | > 24 | 11 to 100 | 1 to 10 | 5 |
| CC(=O)N[C@@H]1C(=O)N[C@@H](CC(N)=O)C(=O)N[C@@H]([C@@H](C)O)C(=O)N[C@@H](Cc2c[nH]c3c(C)cccc23)C(=O)N[C@@H](CCC(N)=O)C(=O)N[C@H](C(=O)N[C@@H](Cc2ccc(OCCN)cc2)C(=O)N[C@@H](Cc2ccc3ccccc3c2)C(=O)N[C@@](C)(CCCCN)C(=O)NC(C)(C)C(=O)N[C@@H](CC(N)=O)C(=O)NCCC(N)=O)C(C)(C)SSC1(C)C [compound 236] | > 24 |  | > 24 | < 10 | 1 to 10 | > 19.8 |
| CC(=O)NCCCC[C@H](NC(=O)[C@](C)(CCCCN)NC(=O)[C@H](Cc1ccc2ccccc2c1)NC(=O)[C@H](Cc1ccc(OCCN)cc1)NC(=O)[C@H]1NC(=O)[C@H](CCC(N)=O)NC(=O)[C@H](Cc2c[nH]c3c(C)cccc23)NC(=O)[C@H]([C@@H](C)O)NC(=O)[C@H](CCCNC(N)=O)NC(=O)[C@@H](NC(C)=O)C(C)(C)SSC1(C)C)C(=O)N[C@@H](CC(N)=O)C(=O)NCCC(N)=O [compound 238] (Ac-[Pen][Cit]T[Trp(7-Me)]Q[Pen][AEF][2Nal][αMeK]K(Ac)N[βAla]-NH2; disulfide 1-6) | 7 |  | > 24 | < 10 | 1 to 10 | > 24 |
